# “Also recorded” adds a separate entry of the source.
# How the values were obtained:
# [1] = test system: NAHL-degrading bacteria in the nutritive solution; assay: Ratio of NAHL-degrading bacteria in unplanted batches of nutritive solution; type: cell-based; conditions: for percentage of NAHL-degrading bacteria in the nutritive solution: without plants
# Description: (§1) The non sterile batches (40×60×8 cm) contained 13 L of the nutritive solution Hydrobloom (Cellmax, UK) with Nitrogen at 0.80 g/L, Phosphore at 0.56 g/L and Potassium at 1.48 g/L as major components. The solution was diluted from a concentrated stock solution (×250) with non sterile water from the public water system. One hundred plants of Solanum tuberosum var. Allians, which were recovered from cultures performed under sterile conditions, were placed into holes (3 cm space to each other) of batch covers. Planted batches were placed in the greenhouse (Comité Nord Plants de Pomme de Terre, Bretteville-du-Grand-Caux) under natural light at 10-15° C. (night) and 25-30° C. (day). […] An untreated batch was used as a control. One gram of roots (fresh weight) was resuspended in 10 mL of sterile MgSO4 10 mM, diluted and spread on TSA and King B plates to isolate total cultivable bacteria and fluorescent Pseudomonas, respectively. Three samples were analyzed from each batch at each time D0, D14 and D28; from each sample, thirty isolates from TSA plates and thirty fluorescent isolates from King B plates were individually tested from production and inactivation of NAHL signal.
# (§2) Bacterial isolates grown in 96-microwell plates were individually tested from production of NAHL with the A. tumefaciens biosensor NT1 (pZNLR4) and the inactivation of the C6-HSL signal, as described previously (d'Angelo-Picard et al. 2004).
# Allians was evaluated. The plants were cultivated in vitro under sterile conditions, then placed into batches in a greenhouse at Bretteville-du-Grand-Caux (France) in a non-sterile environment. Especially, a non-sterile nutritive solution was used and served as a source of naturally occurring bacteria. […] The ratio of NAHL-degrading bacteria in the nutritive solution was evaluated before the treatment and 14-day later. This percentage increased from 10±2 to 30±2 in the case of the 6CL-treated batch and from 10±2 to 70±2 in the GCL-treated batch. From the 6CL- and GCL-treated batches, 10 NAHL-degrading bacteria were identified by their rrs sequence: 9 belonged to the Delftia genus, the other one to the Rhodococcus genus.
# [2] = test system: NAHL-degrading rhizobacteria of potato rhizosphere; assay: Preliminary experiment in planted hydroponic batches: level and diversity of NAHL-degrading rhizobacteria (Table 1); type: in vivo, Solanum tuberosum var. Allians
# Description: as §1, §2
# At least 400 bp were submitted to the NCBI database.
# [3] = test system: Erwinia carotovora subsp. atroseptica 6276; assay: Maceration assay on potato tubers (biocontrol activity of consortia); type: in vivo; conditions: potato tubers infected with mix of Erwinia carotovora 6276 and consortia
# From the text: FIG. 6: Maceration assay on potato tubers.
# (§3) The Mannitol-, 6CL-, GCL-, and HTN-consortia were compared for their capacity to inactivated OC8-HSL, the major NAHL produced by the plant pathogen Erwinia carotovora subsp. atroseptica 6276, as well as for their biocontrol activity against this pathogen in potato maceration assay.
# [4] = test system: bacteria recovered from the consortia; assay: NAHL production and inactivation by isolates recovered from the consortia, with rrs identification; type: cell-based; conditions: for NAHL-producing bacteria among isolates of the consortia: 280 isolates from 280 independent enrichments
# [5] = test system: bacterial consortia from unplanted soil; assay: C6-HSL inactivation by bacterial consortia enriched from unplanted soil on the compound as sole carbon source; type: cell-based; conditions: soil and rhizospheric samples; among 25 assayed molecules
# [6] = test system: NAHL-degrading rhizobacteria; assay: Diversity of NAHL-degrading rhizobacteria after 6CL and GCL treatments, rrs sequencing (Table 2); type: in vivo, Solanum tuberosum; conditions: D14 and D28; 0.1 mL/L
# Description: as §1
# (§4) The 5′-end of the rrs gene was amplified with primers pA (5′-[…]) (SEQ ID NO:1) and 518r (5′-[…]) (SEQ ID NO:2), and sequenced with pA primer by GenomeExpress (Meylan, France). At least 400 bp were submitted to the NCBI database. Although some sequence comparisons authorized identification of isolates at the species level, only the genus level was retained in this study for homogeneity.
# The isolates were identified by rrs-sequencing (Table 2). At D0, most of the NAHL-degrading isolates were identified as Delftia. However, at D14 and D28, the Agrobacterium isolates dominated in untreated batches, while they were not detected in the treated batches. In those, the more frequently counted bacteria were Delftia and Rhodococcus.
# [7] = test system: NAHL-degrading and NAHL-producing bacteria of potato rhizosphere; assay: Two independent analyses of 6CL and GCL treatments on planted batches (FIG. 7); type: in vivo, Solanum tuberosum var. Allians
# From the text: FIG. 7: Percentage of NAHL-degrading and NAHL-producing strains in potato rhizosphere. […] An untreated batch was used as a control in the two independent sets of experiments. The mean of three replicates is shown. Statistically different values (Student t test; 0.05) are noted by different letters.
# as §1, §2
# An untreated batch was used as a control.
# bacterial consortia = assay: Inactivation of C6-HSL and OC8-HSL by mannitol, 6CL, GCL and HTN consortia; type: cell-based
# From the text: as §3
# young plants = conditions: in vivo
# [8] = test system: bacterial consortia originating from rhizospheric soil; assay: C6-HSL inactivation by bacterial consortia enriched from rhizospheric soil; type: cell-based
# soil bacterial consortia = assay: NAHL (C6-HSL, OC8-HSL) inactivation by soil consortia enriched on second set of compounds; type: cell-based; conditions: C6-HSL 25 μM or OC8-HSL 200 nM
# Description: FIG. 4: Kinetics of NAHL inactivation by bacterial consortia. (A) NAHL is C6-HSL with an initial concentration of 25 μM (B) NAHL is 3-oxo-octanoylhomoserine lactone (OC8-HSL), with an initial concentration of 200 nM. The different bacterial consortia obtained after enrichment on the indicated compounds as a sole carbon source (mannitol is abbreviated as Man) were tested to for their capacity to inactivate NAHL signal. At each time (0, 1, 3 and 5 hrs), the uninoculated control (C) was used to estimate the percentage of residual NAHL.
# Non sterile soil from the CNRS experimental field (Mérantaise) at Gif-sur-Yvette (France) was mixed with sterile sand Loire River and distributed into pots (20 cm in diameter). Some of them were sown with disinfected seeds of Nicotiana tabacum cv. Samson. Pots were randomly placed in the greenhouse (CNRS, Gif-sur-Yvette), under a long day conditions (16 h) at 17° C. (night) and 24° C. (day), and watered daily with tap water. One gram of unplanted or rhizospheric (3-months aged plants) soil was resuspended in 10 mL of sterile 0.8% NaCl. […] After a 3-days incubation at 25° C. under shaking (180 rpm), the cell cultures were diluted (1/50) into fresh AB media for an additional 2-days enrichment step. […]
# [9] = test system: NAHL-degrading bacteria of potato rhizosphere; assay: HTN treatment on planted batches (FIG. 9); type: in vivo, Solanum tuberosum
# From the text: FIG. 9: Percentage of NAHL-degrading and NAHL-producing strains in potato rhizosphere after treatment with HTN. The percentage of NAHL degraders and NAHL producers was estimated among cultivable bacteria (cfu/g of fresh weight of roots), which were recovered from potato rhizospheres before the treatment (D0; white columns), 14 days (D14; dark grey columns), 28 days (D28; black columns) after the first treatment and 42 days after the first treatment, i.e., 14 days after the second treatment (D42; grey columns). The letters indicate statistically different values (Student's t-test; 0.05).
# The non sterile batches (40×60×8 cm) contained 13 L of the nutritive solution Hydrobloom (Cellmax, UK) with Nitrogen at 0.80 g/L, Phosphore at 0.56 g/L and Potassium at 1.48 g/L as major components. The solution was diluted from a concentrated stock solution (×250) with non sterile water from the public water system. One hundred plants of Solanum tuberosum var. Allians, which were recovered from cultures performed under sterile conditions, were placed into holes (3 cm space to each other) of batch covers. […] Three samples were analyzed from each batch at each time D0, D14 and D28; from each sample, thirty isolates from TSA plates and thirty fluorescent isolates from King B plates were individually tested from production and inactivation of NAHL signal. […]
# [10] = test system: NAHL-degrading rhizobacteria; assay: Diversity of NAHL-degrading rhizobacteria after HTN treatments, rrs sequencing (Table 3); type: in vivo, Solanum tuberosum
# From the text: as §4
# To analyze the impact of HTN on the diversity of NAHL-degrading strains, 50 NAHL-degrading strains were sampled from the third set of experiments, at the beginning of the experiments (D0) and after 14 and 42 days. The isolates were identified by rrs-sequencing (Table 3). At D0, all of the 5 NAHL-degrading isolates analyzed were identified as Agrobacterium. However, at D14 and D42, the Rhodococcus isolates dominated in treated batches, in which Delftia and Sinorhizobium were also detected
# [11] = 6CL- and GCL-treated batches together, rrs sequence
smiles,measurement,setting,value
"O=C1CCCCCO1 [6CL, 6-caprolactone, reference compound]",NAHL-degrading bacteria belonging to the Delftia genus (of 10 identified),[1]; [11],9
same,NAHL-degrading bacteria belonging to the Rhodococcus genus (of 10 identified),[1]; [11],one
same,percentage of NAHL-degrading bacteria in the nutritive solution,[1]; 14-day after treatment at 1 mL/L,30±2%
same,percentage of NAHL-degrading bacteria in the nutritive solution,[1]; before the treatment,10±2%
same,increase of the ratio of NAHL-degrading bacteria,"[2]; 0.1 mL/L, 28 days after amendment, planted batches",not
same,Log CFU/gram of root (fresh weight),[2]; D0 (before treatment),8.0 ± 7.6 Log CFU/gram of root (fresh we
same,NAHL degraders (%),[2]; D0 (before treatment),8.9 ± 1.5 %
same,NAHL producers (%),[2]; D0 (before treatment),7.8 ± 1.2%
same,rrs-identified NAHL-degraders: Delftia,"[2]; D0, of 8 isolates",7
same,rrs-identified NAHL-degraders: Pseudomonas,"[2]; D0, of 8 isolates",1
same,Log CFU/gram of root (fresh weight),"[2]; D28, 0.1 mL/L",10.5 ± 10.1 Log CFU/gram of root (fresh we
same,NAHL degraders (%),"[2]; D28, 0.1 mL/L",6.7 ± 1.7 %
same,NAHL producers (%),"[2]; D28, 0.1 mL/L",5.6 ± 0.6%
same,identified genera of NAHL-degrading bacteria,"[2]; D28, 0.1 mL/L",3
same,rrs-identified NAHL-degraders: Agrobacterium,"[2]; D28, 0.1 mL/L, of 8 isolates",4
same,rrs-identified NAHL-degraders: Delftia,"[2]; D28, 0.1 mL/L, of 8 isolates",2
same,rrs-identified NAHL-degraders: Pseudomonas,"[2]; D28, 0.1 mL/L, of 8 isolates",2
same,biocontrol activity of the consortia against E. carotovora 6276,[3],did not
same,NAHL-inactivating bacteria recovered from consortia,[4],recovered
same,NAHL-degrading isolates related to Chryseobacterium,[4]; 6CL and GCL consortia together,10%
same,NAHL-degrading isolates related to Delftia,[4]; 6CL and GCL consortia together,80 % of the identified strains
same,NAHL-degrading isolates related to Ralstonia,[4]; 6CL and GCL consortia together,3%
same,NAHL-degrading isolates related to Rhodococcus,[4]; 6CL and GCL consortia together,7%
same,NAHL-producing bacteria among isolates of the consortia,[4],none
same,growth stimulation of NAHL-degrading bacteria after enrichment procedures,[5],stimulated the growth of NAHL-degrading bacteria
same,rrs-identified NAHL-degraders: Delftia,[6],9
same,rrs-identified NAHL-degraders: Others,[6],2
same,rrs-identified NAHL-degraders: Rhizobium,[6],1
same,rrs-identified NAHL-degraders: Rhodococcus,[6],6
same,specific effect on the NAHL-degrading bacteria of the rhizosphere,[7]; 0.1 mL/L,no specific effect
same,proportion of NAHL-degrading bacteria,"[7]; 0.1 mL/L, during all experiments",remained at a quite similar level
same,modification of the ratio of NAHL-producing bacteria,"[7]; 6CL 0.1 mL/L, GCL 0.1 and 0.4 mL/L, D14 and D28",no repeatable modification
same,speed of C6-HSL signal inactivation versus Mannitol consortia,bacterial consortia,inactivated more rapidly
same,speed of OC8-HSL signal inactivation versus Mannitol consortia,bacterial consortia,inactivated more rapidly
same,sensitivity of young plants,young plants,sensitive
same,activity of consortia towards C6-HSL (ranking),[8],the most active
"O=C1CCCO1 [GBL, gamma-butyrolactone]",NAHL-producing bacteria among isolates of the consortia,[4],12 % of the tested strains
"CCCCC1CCC(=O)O1 (centres unmarked) [GOL, gamma-octalactone]",growth stimulation of NAHL-degrading bacteria after enrichment procedures,[5],stimulated the growth of NAHL-degrading bacteria
same,efficiency for obtaining NAHL-degrading consortia (ranking),soil bacterial consortia,most efficient
"CCCC1CCC(=O)O1 (centres unmarked) [HTN, 4-heptanolide]",ability to stimulate the growth of NAHL-degrading bacteria,"[9]; 0.1 and 0.4 mL/L, second treatment at day 28, D14, D28, D42",confirmed the ability of HTN to stimulate the growth of NAHL-degrading bacteria
same,percentage of NAHL-degrading bacteria among total cultivable bacteria,[9]; applied to hydroponic plant cultures (FIG. 9),significant increase
same,Rhodococcus isolates among NAHL-degrading isolates in treated batches,[10]; D14 and D42,dominated
same,rrs-identified NAHL-degraders: Delftia,"[10]; D 14 and D 42, 0.1 mL/L",1
same,rrs-identified NAHL-degraders: Rhodococcus,"[10]; D 14 and D 42, 0.1 mL/L",16
same,rrs-identified NAHL-degraders: Rhodococcus,"[10]; D 14 and D 42, 0.4 mL/L",27
same,rrs-identified NAHL-degraders: Sinorhizobium,"[10]; D 14 and D 42, 0.4 mL/L",1
same,biocontrol activity of the consortia against E. carotovora 6276,[3],biocontrol activity was observed; also recorded: showed biocontrol activity
same,NAHL-inactivating bacteria recovered from consortia,[4],recovered
same,NAHL-producing bacteria among isolates of the consortia,[4],none
same,NAHL-degrading isolates belonging to the Rhodococcus genus,"[4]; HTN consortia, rrs sequence",All seventeen
same,growth stimulation of NAHL-degrading bacteria after enrichment procedures,[5],stimulated the growth of NAHL-degrading bacteria
same,efficiency for obtaining NAHL-degrading consortia (ranking),soil bacterial consortia,most efficient
same,speed of C6-HSL signal inactivation versus Mannitol consortia,bacterial consortia,inactivated more rapidly
same,speed of OC8-HSL signal inactivation versus Mannitol consortia,bacterial consortia,inactivated more rapidly
same,activity of consortia towards C6-HSL (ranking),[8],the most active
"OC[C@@H](O)[C@@H](O)[C@H](O)[C@H](O)CO [Mannitol, mannitol, reference compound]",biocontrol activity of the consortia against E. carotovora 6276,[3],did not
same,NAHL-producing bacteria among isolates of the consortia,[4],10 % of the tested strains
"OCC1CCCO1 (centres unmarked) [THA, tetrahydrofurfuryl alcohol]",NAHL-inactivating bacteria recovered from consortia,[4],recovered
same,NAHL-producing bacteria among isolates of the consortia,[4],13 % of the tested strains
same,activity of consortia towards C6-HSL (ranking),[8],the most active
"C1CCOC1 [THF, tetrahydrofurane]",NAHL-inactivating bacteria recovered from consortia,[4],recovered
same,NAHL-producing bacteria among isolates of the consortia,[4],41 % of the tested strains

# From US8354265B2, “Chemicals promoting the growth of N-acylhomoserine lactone-degrading bacteria” (Centre National de la Recherche Scientifique, priority 2007, dated 2013)
